Test results published in the NIST ThermoML archive (doi:10.1016/j.jct.2004.07.014).
± gives the expanded uncertainty stated by the source.

Conditions: Liquid, Closed cell (Static) method

Question: With `CC#N` [acetonitrile] as the molecule, how does the “vapor or sublimation pressure” value (305.51 K) read?
Answer: The value was 16.47 ± 0.22 kPa.

Question: And the “vapor or sublimation pressure” value (323.12 K)?
Answer: Its value is 33.71 ± 0.25 kPa.

Question: What about the “vapor or sublimation pressure” value (353.13 K) of the same molecule?
Answer: Its value is 96.17 ± 0.37 kPa.
